{
  "source": "paper PMC8501799",
  "about": "“Constitutive signal bias mediated by the human GHRHR splice variant 1” (Proceedings of the National Academy of Sciences of the …, 2021)",
  "type_in_all_cases": "cell-based, human",
  "key": {"SV1 F62A": {"test_system": "SV1 F62A", "experiment": "cAMP accumulation", "settings": "Table S4, mean ± SEM", "method": "(§1) GHRH-stimulated cAMP accumulation was measured by a LANCE Ultra cAMP kit (PerkinElmer). Briefly, HEK293T cells (24 h after transfection with SV1 or GHRHR) or prostate cancer cells were digested by 0.2% (wt/vol) EDTA and washed once with Dulbecco’s phosphate-buffered saline (PBS). Cells were then resuspended with stimulation buffer (Hanks’ balanced salt solution [HBSS] supplemented with 5 mM HEPES, 0.5 mM IBMX, and 0.1% [wt/vol] bovine serum albumin [BSA], pH 7.4) to a density of 0.6 million cells per milliliter and added to 384-well white plates (3,000 cells per well). […] The reaction was stopped by adding 5 μL Eu-cAMP tracer and 5 μL ULight-anti-cAMP. After 1 h RT incubation, TR-FRET signals (excitation: 320 nm, emission: 615 and 665 nm) were measured by an Envision plate reader (PerkinElmer). cAMP concentrations were interpolated by a standard curve.\n(§2) All functional study data were analyzed using Prism 7 (GraphPad) and presented as means ± SEM from at least three independent experiments. Concentration-response curves were evaluated with a three-parameter logistic equation. The significance was determined with either two-tailed Student’s t test or one-way ANOVA, and P < 0.05 is considered statistically significant.\n(§3) Table S4. Effects of residue mutation in the ligand-binding pocket of SV1 on GHRH-induced cAMP […]\n(§4) Mutant pEC50 Emax Cell surface expression ΔLog (τ/KA)\n(§5) (% WT GHRHR) (% WT GHRHR) cAMP accumulation data were analyzed using a three-parameter logistic equation to determine pEC50 and Emax values. pEC50 is the negative logarithm of the molar concentration of agonist that induced half the maximal response. Emax for mutants is expressed as a percentage of the WT GHRHR. Data were analyzed by nonlinear regression using the operational model equation to determine t he logR values (logτ/KA, i.e., logarithm of the transduction ratio). τ is the effi cacy value of the agonist and was corrected by cell surface expression of the receptor. KA is dissociation constant. Changes in transduction ratio (ΔlogR) were calculated to determine the relative effectiveness of the mutants. All values are means ± S.E.M. of four independent experiments (n = 4) conducted in quadruplicate. Statistical analysis was carried out by comparing the control responses in the WT-SV1. *, P < 0.05, **, P < 0.01 and ***, P < 0.001, determined by one-way"}, "SV1 H146A": {"test_system": "SV1 H146A", "experiment": "cAMP accumulation", "settings": "Table S4, mean ± SEM", "method": "as §1, §2, §3, §4, §5"}, "SV1 I225A": {"test_system": "SV1 I225A", "experiment": "cAMP accumulation", "settings": "Table S4, mean ± SEM", "method": "as §1, §2, §3, §4, §5"}, "SV1 K118A": {"test_system": "SV1 K118A", "experiment": "cAMP accumulation", "settings": "Table S4, mean ± SEM", "method": "as §1, §2, §3, §4, §5"}, "SV1 K66A": {"test_system": "SV1 K66A", "experiment": "cAMP accumulation", "settings": "Table S4, mean ± SEM", "method": "as §1, §2, §3, §4, §5"}, "SV1 L290A": {"test_system": "SV1 L290A", "experiment": "cAMP accumulation", "settings": "Table S4, mean ± SEM", "method": "as §1, §2, §3, §4, §5"}, "SV1 L294A": {"test_system": "SV1 L294A", "experiment": "cAMP accumulation", "settings": "Table S4, mean ± SEM", "method": "as §1, §2, §3, §4, §5"}, "SV1 S145A": {"test_system": "SV1 S145A", "experiment": "cAMP accumulation", "settings": "Table S4, mean ± SEM", "method": "as §1, §2, §3, §4, §5"}, "SV1 V65A": {"test_system": "SV1 V65A", "experiment": "cAMP accumulation", "settings": "Table S4, mean ± SEM", "method": "as §1, §2, §3, §4, §5"}, "SV1 Y69A": {"test_system": "SV1 Y69A", "experiment": "cAMP accumulation", "settings": "Table S4, mean ± SEM", "method": "as §1, §2, §3, §4, §5"}, "[1]": {"test_system": "GHRHR ECD mutants (L34, L62, F82, F85 to alanine)", "experiment": "β-arrestin 1/2 recruitment (BRET), GHRHR ECD alanine mutants", "settings": "HEK293T", "method": "HEK293T cells were seeded at a density of 30,000 cells per well into 96-well culture plates pretreated with poly-D-lysine hydrobromide. After incubation for 24 h to reach 70% to 80% confluence, the cells were transiently transfected with HA-Flag-GHRHR-Rluc8 or HA-Flag-SV1-Rluc8 and β-arrestin 1/2-Venus at a 1:9 mass ratio using lipofectamine 3000 reagent (Invitrogen) and cultured for another 24 h. Thereafter, cells were washed once and incubated for 30 min at 37 °C with HBSS buffer (pH 7.4) supplemented with 0.1% BSA and 10 mM HEPES. Five micromolars of coelenterazine h (YEASEN Biotechnology) was then added and incubated for 5 min in the dark. The bioluminescence resonance energy transfer (BRET) signals were detected with an Envision plate reader by calculating the ratio of emission at 535 nm over emission at 470 nm."}, "[2]": {"settings": "HEK293T, LANCE Ultra cAMP, 30 min RT, 0.5 mM IBMX, n = 4 in quadruplicate"}, "[3]": {"settings": "HEK293T, n = 4 in quadruplicate"}, "[4]": {"settings": "operational model, τ corrected by cell surface expression, n = 4"}},
  "data": [
    {"smiles": "CC[C@H](C)[C@H](NC(=O)[C@H](C)NC(=O)[C@H](CC(=O)O)NC(=O)[C@H](C)NC(=O)[C@@H](N)Cc1ccc(O)cc1)C(=O)N[C@@H](Cc1ccccc1)C(=O)N[C@H](C(=O)N[C@@H](CC(N)=O)C(=O)N[C@@H](CO)C(=O)N[C@@H](Cc1ccc(O)cc1)C(=O)N[C@@H](CCCNC(=N)N)C(=O)N[C@@H](CCCCN)C(=O)N[C@H](C(=O)N[C@@H](CC(C)C)C(=O)NCC(=O)N[C@@H](CCC(N)=O)C(=O)N[C@@H](CC(C)C)C(=O)N[C@@H](CO)C(=O)N[C@@H](C)C(=O)N[C@@H](CCCNC(=N)N)C(=O)N[C@@H](CCCCN)C(=O)N[C@@H](CC(C)C)C(=O)N[C@@H](CC(C)C)C(=O)N[C@@H](CCC(N)=O)C(=O)N[C@@H](CC(=O)O)C(=O)N[C@H](C(=O)N[C@@H](CCSC)C(=O)N[C@@H](CO)C(=O)N[C@@H](CCCNC(=N)N)C(=O)N[C@@H](CCC(N)=O)C(=O)N[C@@H](CCC(N)=O)C(=O)NCC(=O)N[C@@H](CCC(=O)O)C(=O)N[C@@H](CO)C(=O)N[C@@H](CC(N)=O)C(=O)N[C@@H](CCC(N)=O)C(=O)N[C@@H](CCC(=O)O)C(=O)N[C@@H](CCCNC(=N)N)C(=O)NCC(=O)N[C@@H](C)C(=O)N[C@@H](CCCNC(=N)N)C(=O)N[C@@H](C)C(=O)N[C@@H](CCCNC(=N)N)C(=O)N[C@@H](CC(C)C)C(N)=O)[C@@H](C)CC)C(C)C)[C@@H](C)O", "note": "[GHRH, growth hormone–releasing hormone]", "values": [
      {"measurement": "pEC50 of cAMP accumulation", "setting": "SV1 F62A; [2]", "result": "5.28 ± 0.08"},
      {"measurement": "Emax of cAMP accumulation", "setting": "SV1 F62A; [3]", "result": "105.64 ± 4.54", "unit": "% WT GHRHR"},
      {"measurement": "ΔLog (τ/KA)", "setting": "SV1 F62A; [4]", "result": "-4.41 ± 0.14"},
      {"measurement": "pEC50 of cAMP accumulation", "setting": "SV1 H146A; [2]", "result": "5.07 ± 0.08"},
      {"measurement": "Emax of cAMP accumulation", "setting": "SV1 H146A; [3]", "result": "101.06 ± 4.83", "unit": "% WT GHRHR"},
      {"measurement": "ΔLog (τ/KA)", "setting": "SV1 H146A; [4]", "result": "-4.64 ± 0.11"},
      {"measurement": "pEC50 of cAMP accumulation", "setting": "SV1 I225A; [2]", "result": "4.98 ± 0.12"},
      {"measurement": "Emax of cAMP accumulation", "setting": "SV1 I225A; [3]", "result": "76.03 ± 5.48", "unit": "% WT GHRHR"},
      {"measurement": "ΔLog (τ/KA)", "setting": "SV1 I225A; [4]", "result": "-3.85 ± 0.13"},
      {"measurement": "pEC50 of cAMP accumulation", "setting": "SV1 K118A; [2]", "result": "4.61 ± 0.12"},
      {"measurement": "Emax of cAMP accumulation", "setting": "SV1 K118A; [3]", "result": "92.40 ± 7.25", "unit": "% WT GHRHR"},
      {"measurement": "ΔLog (τ/KA)", "setting": "SV1 K118A; [4]", "result": "-4.51 ± 0.13"},
      {"measurement": "pEC50 of cAMP accumulation", "setting": "SV1 K66A; [2]", "result": "5.60 ± 0.08"},
      {"measurement": "Emax of cAMP accumulation", "setting": "SV1 K66A; [3]", "result": "106.82 ± 4.09", "unit": "% WT GHRHR"},
      {"measurement": "ΔLog (τ/KA)", "setting": "SV1 K66A; [4]", "result": "-4.02 ± 0.11"},
      {"measurement": "pEC50 of cAMP accumulation", "setting": "SV1 L290A; [2]", "result": "5.58 ± 0.08"},
      {"measurement": "Emax of cAMP accumulation", "setting": "SV1 L290A; [3]", "result": "109.60 ± 3.90", "unit": "% WT GHRHR"},
      {"measurement": "ΔLog (τ/KA)", "setting": "SV1 L290A; [4]", "result": "-4.56 ± 0.09"},
      {"measurement": "pEC50 of cAMP accumulation", "setting": "SV1 L294A; [2]", "result": "5.32 ± 0.10"},
      {"measurement": "Emax of cAMP accumulation", "setting": "SV1 L294A; [3]", "result": "106.26 ± 5.25", "unit": "% WT GHRHR"},
      {"measurement": "ΔLog (τ/KA)", "setting": "SV1 L294A; [4]", "result": "-4.96 ± 0.12"},
      {"measurement": "pEC50 of cAMP accumulation", "setting": "SV1 S145A; [2]", "result": "6.34 ± 0.09"},
      {"measurement": "Emax of cAMP accumulation", "setting": "SV1 S145A; [3]", "result": "101.87 ± 3.50", "unit": "% WT GHRHR"},
      {"measurement": "ΔLog (τ/KA)", "setting": "SV1 S145A; [4]", "result": "-4.22 ± 0.14"},
      {"measurement": "pEC50 of cAMP accumulation", "setting": "SV1 V65A; [2]", "result": "5.33 ± 0.09"},
      {"measurement": "Emax of cAMP accumulation", "setting": "SV1 V65A; [3]", "result": "106.08 ± 4.91", "unit": "% WT GHRHR"},
      {"measurement": "ΔLog (τ/KA)", "setting": "SV1 V65A; [4]", "result": "-4.08 ± 0.12"},
      {"measurement": "pEC50 of cAMP accumulation", "setting": "SV1 Y69A; [2]", "result": "5.44 ± 0.09"},
      {"measurement": "Emax of cAMP accumulation", "setting": "SV1 Y69A; [3]", "result": "104.75 ± 4.29", "unit": "% WT GHRHR"},
      {"measurement": "ΔLog (τ/KA)", "setting": "SV1 Y69A; [4]", "result": "-3.81 ± 0.10"},
      {"measurement": "β-arrestin 1/2 recruitments", "setting": "[1]; F82A and F85A mutants of GHRHR", "result": "enhanced β-arrestin 1/2 recruitments"},
      {"measurement": "β-arrestin 1/2 recruitments", "setting": "[1]; any or all of four ECD residues (L34, L62, F82, F85) to alanine", "result": "enhanced β-arrestin 1/2 recruitments"}
    ]}
  ]
}
